Consider four compounds from ChEMBL document CHEMBL2331078, “Quantitative purity-activity relationships of natural products: the case of anti-tuberculosis active triterpenes from Oplopanax horridus” (2013).

Converted amounts (≈) assume the structure as drawn. The source made the active and inactive calls. No cut-off for these calls is given here.

Assay [1] concerns Mycobacterium tuberculosis. Nature of the assay: Antimycobacterial activity against Mycobacterium tuberculosis. In kind it is functional.
Assay [2] deals with Mycobacterium tuberculosis. As to the kind of experiment: Antimycobacterial activity against Mycobacterium tuberculosis H37Rv ATCC 27294 by Alamar blue assay. The format is functional, organism-based. (In general: The colour change of resazurin is a common sign of viable cells or microbes.)

`C=C(C)[C@@H]1CC[C@]2(C(=O)O)CC[C@]3(C)[C@H](CC[C@@H]4[C@@]5(C)CC[C@@H](O)[C@@](C)(C(=O)O)[C@@H]5CC[C@]43C)[C@@H]12`: the minimum inhibitory concentration (MIC) – broadly, the least concentration at which growth counts as inhibited – in assay [1] was 54 µg/mL (≈ 111 µM). For the same compound, the result in assay [2] was Active.
In turn, `CC1(C)CC[C@]2(C(=O)O)CC[C@]3(C)C(=CC[C@@H]4[C@@]5(C)CC[C@H](O)C(C)(C)[C@@H]5CC[C@]43C)[C@@H]2C1` [OLEANOLIC_ACID] registered an MIC in assay [1] of 29 µg/mL (≈ 63.5 µM).
In assay [1], `C=C(C)[C@@H]1CC[C@]2(C(=O)O)CC[C@]3(C)[C@H](CC[C@@H]4[C@@]5(C)CC[C@H](O)C(C)(C)[C@@H]5CC[C@]43C)[C@@H]12` [BETULINIC ACID] gave an MIC of 62 µg/mL (≈ 136 µM). Against the preceding compound, the MIC is about 2.1-fold higher.
`CC1(C)CC[C@]2(C(=O)O)CC[C@]3(C)C(=CC[C@@H]4[C@@]5(C)CC[C@@H](O)[C@@](C)(C(=O)O)[C@@H]5CC[C@]43C)[C@@H]2C1`: in assay [2], the result was Active.
